Laboratory results taken from patent US11202789B2, “Method of treating glycogen storage disease” (Viking Therapeutics, Inc., priority 2016, dated 2021).

How the values were obtained:
Type in all cases: in vivo
normal (wild type) mice = experiment: Wild type mice treated alongside the G6PC−/− model (Example 12); conditions: wild type (wt) mice
Description: (§1) Compound 2 was tested in a G6PC−/−mouse model of GSD Ia. Daily injection of 0.1 to 0.2 mL 10% dextrose subcutaneously was initiated within 3 days of age for G6PC−/−mice. All G6PC−/−mice continued to receive daily dextrose injections during this time. Blood was collected at time of euthanasia, when tissues were collected. Two groups of 4 G6PC−/−mice (1 group treated with Compound 2, 1 group treated with vehicle) were analyzed to identify statistically significant differences between Compound 2-treated and vehicle-treated controls. We also treated 2 groups of 3 normal (wild type) mice, one with Compound 2 and one with vehicle.
(§2) Initially the GSD Ia mice were treated with Compound 2 from 5 to 10 days of age. Body mass, liver mass, liver glycogen concentration, liver triglycerides, fasting serum glucose, fasting serum triglycerides, and GSD-related cell signaling pathways were examined. Similarly, groups of GSD Ia mice were treated with vehicle for 5 days to serve as mock-treated controls for all assays. Groups of 3-4 mice were evaluated. GSD Ia mice were treated for >7 days to assess survival and longer-term effects of Compound 2 as described above (GSD Ia mice rarely survive >12 days of life without a therapeutic intervention). Metabolomic analysis of hepatic extracts were performed as described (Sinha, Farah et al. (2013), Hepatology 59(4):1366-80). Acylcarnitine and amino acid profiling were employed to detect any changes related to increased lipolysis and fatty acid beta-oxidation as described by Sinha et al. (Sinha, Farah et al. (2013), Hepatology 59(4):1366-80). […] Mean liver triglyceride content was reduced by more than 60% in Compound 2-treated animals relative to vehicle-treated control animals, while average liver weight was reduced by more than 30% vs. controls. Importantly, average liver weight as a percent of total body weight also declined by approximately 20% in treated vs. control animals. Further, treatment with Compound 2 led to statistically significant reductions in key metabolic markers of GSD Ia.

G6PC−/− mice [1] = experiment: G6pc−/− mouse model of GSD Ia, 4 days of treatment (Example 13)
Description: The objective of this study was to determine the ability of Compound 2, a small molecule prodrug of a potent thyroid hormone beta receptor (TBR) agonist, to reduce hepatic steatosis and other metabolic derangements in the glucose-6-phosphatase catalytic subunit knockout (G6pc−/−) mouse model of glycogen storage disease type Ia (GSD Ia).
Mice were treated with Compound 2 or with vehicle, using 4 groups of 6-7 mice: G6pc−/−mice receiving Compound 2, G6pc−/−mice receiving vehicle, Wt mice receiving Compound 2, and WT mice receiving vehicle. Daily injection of 0.1 to 0.2 mL 10% dextrose subcutaneously was initiated at 3 days of age for all mice, and all mice continued to receive daily dextrose injections throughout drug or vehicle treatment. Dextrose was not administered on the day of tissue collection. Mice were treated daily with Compound 2 or with vehicle, respectively, from 5 to 8 days of age. Mice were sacrificed on Day 9, and blood and tissues were collected. The fasting serum glucose and triglycerides, hepatic lipid and glycogen content, and GSD-related cell signaling pathways were examined.

G6PC−/− mice [2] = experiment: G6PC−/− mouse model of GSD Ia (Example 12)
Description: as §1, §2

beagle dogs = experiment: Compound 2 dosing study in dogs: plasma cholesterol; conditions: for average reduction of total plasma cholesterol levels: Day 15, from baseline
Description: Compound 2 Dosing Study in Dogs: The objective of the study was to determine the effects of oral administration of Compound 2 once-daily for 14 days followed by alternate day dosing for 14 days on plasma cholesterol levels and indicators of thyroid function in beagle dogs. Compound 2 was formulated with Lutrol F68 NF (Poloxomer 188) and carboxymethylcellulose (CMC; sodium salt/high viscosity) and was administered as a suspension in 0.5% CMC/1% Lutrol in deionized water. […] At the end of the treatment cycle (Cycle 1), the dogs were washed out for 4 weeks and then entered into a second 14-day treatment cycle. Cycle 2 employed the same dosing paradigm as Cycle 1, but animals were randomized to Cycle 2 in such a way that the combined dosing groups from the two cycles consisted of 4 different animals (2 males, 2 females) each. At the conclusion of Cycle 2, dosing was continued on alternate days for an additional 14-day period (Cycle 2 Extension). Blood samples were collected at baseline and appropriate time intervals thereafter and analyzed for total plasma cholesterol levels, serum levels of total T4 (tT4), free T4 (fT4), total T3 (tT3), free T3 (fT3), and thyroid stimulating hormone (TSH).

male ob/ob mice = experiment: 9-week efficacy and safety study in male ob/ob mice; conditions: for total plasma cholesterol levels lower: after 9 weeks; for liver triglyceride levels lower: at 9 weeks
Description: The objective of this study was to evaluate the efficacy and safety of Compound 2 treatment at doses of 3, 10, and 30 mg/kg/day for 9 weeks in male ob/ob mice. 3,3′,5-Triiodo-L-thyronine (T3) was used as a comparator in this study.
Methods: Seventy-eight adult male ob/ob mice were assigned to six different treatment groups (n=6-24/group). Animals were dosed daily with either vehicle [1% carboxymethylcellulose (CMC) in water, PO], T3 [(100 nmole/kg/day in aqueous solution, subcutaneous (SC)], or Compound 2 [3, 10 or 30 mg/kg/day in 1% CMC, PO]. Blood glucose and plasma cholesterol were measured weekly in all animals. Subsets of animals in the vehicle-treated and 30 mg/kg/day Compound 2-treated groups were sacrificed after 3, 6 and 9 weeks of treatment to analyze the temporal effects of Compound 2 on liver weight and liver triglyceride levels. Liver triglyceride levels, liver glycogen content, heart, liver and epididymal fat pad weights, and plasma clinical chemistry parameters were measured at sacrifice.

SMILES: Cc1cc(OCP2(=O)OCCC(c3cccc(Cl)c3)O2)cc(C)c1Cc1ccc(O)c(C(C)C)c1 (stereo not shown) [Compound 2]
- body mass (normal (wild type) mice; vs vehicle-treated controls (FIG. 15)): reduced
- liver mass (normal (wild type) mice; vs vehicle-treated controls (FIG. 16)): reduced
- liver mass as a percentage of body mass (normal (wild type) mice; vs vehicle-treated controls (FIG. 17)): reduced
- liver glycogen levels (normal (wild type) mice; vs vehicle-treated controls (FIG. 18)): significantly reduced
- serum triglycerides (normal (wild type) mice; vs vehicle-treated controls (FIG. 19)): somewhat enhanced
- liver triglyceride concentrations (normal (wild type) mice; vs vehicle-treated controls (FIG. 20)): reduced
- total liver triglycerides (normal (wild type) mice; vs vehicle-treated controls (FIG. 21)): reduced
- difference in kidney mass as a percentage of total body mass, Compound 2 vs vehicle (G6PC−/− mice [1]; G6pc−/− mice (FIG. 23B)): not significant
- mean total liver triglycerides reduced (G6PC−/− mice [1]; G6pc−/− mice, 4 days of drug treatment, vs vehicle-treated controls, p<0.0001): 69.0%
- mean serum triglyceride concentration (G6PC−/− mice [1]; G6pc−/− mice, drug treatment (vehicle 729.59 mg/dL)): 336.58 mg/dL
- decrease in mean serum triglyceride concentration (G6PC−/− mice [1]; G6pc−/− mice, drug treatment vs vehicle): 54.0%
- mean total liver triglycerides (G6PC−/− mice [1]; G6pc−/− mice, following 4 days of drug treatment (vehicle 13.550 mg)): 4.210 mg
- blood glucose measurements (G6PC−/− mice [1]; G6pc−/− mice, lower detection limit of the glucometer (FIG. 27)): < 20 mg/dL
- mean liver weights (G6PC−/− mice [1]; G6pc−/− mice, treated (control 393.55 mg)): 253.11 mg
- mean liver weights reduced (G6PC−/− mice [1]; G6pc−/− mice, treated vs control, p<0.05): over 30%
- body mass (G6PC−/− mice [1]; daily treatment from 5 to 8 days of age (FIG. 22)): not affected
- kidney mass (G6PC−/− mice [1]; daily treatment from 5 to 8 days of age (FIG. 23)): not affected
- liver glycogen concentration (G6PC−/− mice [1]; under the dosing parameters chosen (FIG. 26)): no significant changes
- serum glucose concentration (G6PC−/− mice [1]; under the dosing parameters chosen (FIG. 27)): no significant changes
- serum triglyceride concentration (G6PC−/− mice [1]; under the dosing parameters chosen (FIG. 28)): no significant changes
- average liver weight reduced (G6PC−/− mice [2]; Compound 2-treated vs controls): more than 30%
- mean liver triglyceride content reduced (G6PC−/− mice [2]; Compound 2-treated vs vehicle-treated control animals): more than 60%
- body mass (G6PC−/− mice [2]; G6PC−/− mice, vs vehicle-treated controls (FIG. 15)): reduced
- liver mass (G6PC−/− mice [2]; G6PC−/− mice, vs vehicle-treated controls (FIG. 16)): reduced
- liver mass as a percentage of body mass (G6PC−/− mice [2]; G6PC−/− mice, vs vehicle-treated controls (FIG. 17)): reduced
- liver glycogen levels (G6PC−/− mice [2]; G6PC−/− mice, vs vehicle-treated controls (FIG. 18)): somewhat enhanced
- serum triglycerides (G6PC−/− mice [2]; G6PC−/− mice, vs vehicle-treated controls (FIG. 19)): somewhat enhanced
- liver triglyceride concentrations (G6PC−/− mice [2]; G6PC−/− mice, vs vehicle-treated controls (FIG. 20)): reduced
- total liver triglycerides (G6PC−/− mice [2]; G6PC−/− mice, vs vehicle-treated controls (FIG. 21)): reduced
- average liver weight as a percent of total body weight declined (G6PC−/− mice [2]; treated vs control animals): approximately 20%
- effects on total plasma cholesterol levels (beagle dogs; 0.1 mg/kg/day oral once-daily): minimal effects
- average reduction of total plasma cholesterol levels from baseline (beagle dogs; Day 15, 0.3 mg/kg/day oral once-daily for 14 days): ~22%
- average reduction of total plasma cholesterol levels from baseline (beagle dogs; Day 15, 10 mg/kg/day oral once-daily for 14 days): ~47%
- average reduction of total plasma cholesterol levels (beagle dogs; 0.3 mg/kg/day oral once-daily for 14 days): ~28 mg/dL
- average reduction of total plasma cholesterol levels (beagle dogs; 10 mg/kg/day oral once-daily for 14 days): ~71 mg/dL
- total plasma cholesterol levels relative to vehicle-treated animals (beagle dogs; alternate day dosing for 14 days (Cycle 2 Extension)): remained reduced relative to vehicle-treated animals to a similar or greater extent than observed after once-daily dosing
- total plasma cholesterol levels lower (male ob/ob mice; 3 mg/kg/day PO, vs vehicle): ~43%
- liver glycogen content (male ob/ob mice; 10 mg/kg/day PO, 9 weeks, vs vehicle (FIG. 5)): significantly (p<0.05) higher
- total plasma cholesterol levels lower (male ob/ob mice; 10 mg/kg/day PO, vs vehicle): ~42%
- liver triglyceride levels lower (male ob/ob mice; 10 mg/kg/day PO, vs vehicle): ~39%
- total plasma cholesterol levels lower (male ob/ob mice; 30 mg/kg/day PO, vs vehicle): ~47%
- liver triglyceride levels lower (male ob/ob mice; 30 mg/kg/day PO, vs vehicle): ~46%
- liver triglyceride levels (male ob/ob mice; 30 mg/kg/day PO, from Week 3 onwards, vs vehicle): lower
- terminal liver glycogen levels (male ob/ob mice; Compound 2-treated groups (3, 10, 30 mg/kg/day PO), 9 weeks, vs vehicle): modestly higher or similar
- alanine aminotransferase (ALT) levels (male ob/ob mice; all dose groups (3, 10, 30 mg/kg/day PO)): Decreased
- terminal liver weights (male ob/ob mice; all dose groups (3, 10, 30 mg/kg/day PO), 9 weeks, vs vehicle): lower
